Assay results taken from paper PMC11649117, “SLMO transfers phosphatidylserine between the outer and inner mitochondrial membrane in Drosophila” (PLOS Biology, 2024).

Molecular target: T1, SLMO (Slowmo); MBP-SLMO (Drosophila melanogaster, UniProt Q9V3U9)
T1 construct: N-terminal MBP fusion from pMAL-c6T (BamHI/EcoRI), E. coli BL21(DE3), Ni-NTA purified; tag kept
T1 sequence (Q9V3U9 1-215): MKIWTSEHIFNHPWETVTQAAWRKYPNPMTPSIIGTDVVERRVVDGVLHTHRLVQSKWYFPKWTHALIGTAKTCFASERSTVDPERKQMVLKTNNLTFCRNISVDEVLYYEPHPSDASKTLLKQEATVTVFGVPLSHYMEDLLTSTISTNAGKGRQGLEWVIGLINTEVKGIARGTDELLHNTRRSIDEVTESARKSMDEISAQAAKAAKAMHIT
Experiment: liposome lipid transfer assay, NBD dequenching
Assay type: biochemical
Conditions: labelled compound, donor liposomes PC:PE:Rhod-PE:NBD-PS 56:40:3:1, acceptor PC:PE:CL 55:40:5, no chemical conversion

With `CCCCCCCC/C=C\CCCCCCCC(=O)OC[C@H](COP(=O)(O)OC[C@H](N)C(=O)O)OC(=O)CCCCCCCCCCCNc1ccc([N+](=O)[O-])c2nonc12` [NBD-PS] the “liposome lipid transfer assay, NBD dequenching” value was “SLMO efficiently transported PS but not PE between liposomes in vitro”.
